For experiment [1], the target named is Protein kinase C alpha type (Homo sapiens) (UniProt P17252). As to the kind of experiment: Inhibition of human full length (His)6-tagged PKCalpha expressed in insect Sf21 cells using histone H1 as substrate assessed as residual enzyme activity at 10 uM measured for 30 mins by [gamma-33P]ATP-based kinase assay.
Experiment [2] is described as follows: Cytotoxicity against human HCT116 cells after 72 hrs by MTT assay. Format: functional, cell-based. Particulars: HCT-116, 72 h.
Experiment [3] deals with T1, Serine/threonine-protein kinase pim-1 (Homo sapiens, UniProt P11309). Kind of experiment: Inhibition of human full length (His)6-tagged Pim-1 expressed in insect Sf21 cells using RSRHSSYPAGT as substrate assessed as residual enzyme activity at 1 uM measured for 30 mins by [gamma-33P]ATP-based kinase assay.
Target sequence in this assay (P11309 whole entry, looked up): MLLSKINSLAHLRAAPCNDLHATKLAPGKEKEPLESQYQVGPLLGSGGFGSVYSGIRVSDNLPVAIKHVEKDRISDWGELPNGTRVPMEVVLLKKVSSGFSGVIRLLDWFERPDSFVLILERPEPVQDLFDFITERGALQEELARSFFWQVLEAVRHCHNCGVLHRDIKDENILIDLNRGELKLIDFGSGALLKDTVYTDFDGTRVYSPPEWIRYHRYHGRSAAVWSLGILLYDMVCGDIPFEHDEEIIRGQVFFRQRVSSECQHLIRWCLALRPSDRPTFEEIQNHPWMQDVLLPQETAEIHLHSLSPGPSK
The subject of experiment [4] is K562. As to the kind of experiment: Cytotoxicity against human K562 cells after 72 hrs by MTT assay. Conditions: K562, 72 h. It counts as functional, cell-based. Background: Formazan colour is commonly taken as a measure of viable cells.
Experiment [5] deals with Protein kinase C alpha type (Homo sapiens) (UniProt P17252). Kind of experiment: Inhibition of human full length (His)6-tagged PKCalpha expressed in insect Sf21 cells using histone H1 as substrate assessed as residual enzyme activity at 1 uM measured for 30 mins by [gamma-33P]ATP-based kinase assay.
Experiment [6] concerns the target Protein kinase C gamma type (Homo sapiens) (UniProt P05129). As to the kind of experiment: Inhibition of human full length (His)6-tagged PKCgamma expressed in insect Sf21 cells using histone H1 as substrate assessed as residual enzyme activity at 10 uM measured for 30 mins by [gamma-33P]ATP-based kinase assay.
Experiment [7] deals with T1, Serine/threonine-protein kinase pim-1. Kind of experiment: Inhibition of human full length (His)6-tagged Pim-1 expressed in insect Sf21 cells using RSRHSSYPAGT as substrate assessed as residual enzyme activity at 10 uM measured for 30 mins by [gamma-33P]ATP-based kinase assay.
Target sequence in this assay (P11309 whole entry, looked up): as above
Experiment [8] deals with Protein kinase C gamma type (Homo sapiens) (UniProt P05129). As to the kind of experiment: Inhibition of human full length (His)6-tagged PKCgamma expressed in insect Sf21 cells using histone H1 as substrate assessed as residual enzyme activity at 1 uM measured for 30 mins by [gamma-33P]ATP-based kinase assay.
Experiment [9] concerns K562. As to the kind of experiment: Cytotoxicity against human K562 cells. Format: functional, cell-based.
In experiment [10] the target is Serine/threonine-protein kinase pim-3 (Homo sapiens, UniProt Q86V86). As to the kind of experiment: Inhibition of human full length (His)6-tagged Pim-3 expressed in insect Sf21 cells using RSRHSSYPAGT as substrate measured for 30 mins by [gamma-33P]ATP-based kinase assay.
For experiment [11], the system named is Calf thymus DNA. As to the kind of experiment: Binding affinity to calf thymus double stranded DNA assessed as dsDNA level causing quenching of compound fluorescence by fluorescence spectrophotometric analysis. It counts as nucleic-acid assay, Bos taurus.
For experiment [12], the target named is T2, DNA topoisomerase 1 (Homo sapiens) (UniProt P11387).
T2 sequence (whole entry): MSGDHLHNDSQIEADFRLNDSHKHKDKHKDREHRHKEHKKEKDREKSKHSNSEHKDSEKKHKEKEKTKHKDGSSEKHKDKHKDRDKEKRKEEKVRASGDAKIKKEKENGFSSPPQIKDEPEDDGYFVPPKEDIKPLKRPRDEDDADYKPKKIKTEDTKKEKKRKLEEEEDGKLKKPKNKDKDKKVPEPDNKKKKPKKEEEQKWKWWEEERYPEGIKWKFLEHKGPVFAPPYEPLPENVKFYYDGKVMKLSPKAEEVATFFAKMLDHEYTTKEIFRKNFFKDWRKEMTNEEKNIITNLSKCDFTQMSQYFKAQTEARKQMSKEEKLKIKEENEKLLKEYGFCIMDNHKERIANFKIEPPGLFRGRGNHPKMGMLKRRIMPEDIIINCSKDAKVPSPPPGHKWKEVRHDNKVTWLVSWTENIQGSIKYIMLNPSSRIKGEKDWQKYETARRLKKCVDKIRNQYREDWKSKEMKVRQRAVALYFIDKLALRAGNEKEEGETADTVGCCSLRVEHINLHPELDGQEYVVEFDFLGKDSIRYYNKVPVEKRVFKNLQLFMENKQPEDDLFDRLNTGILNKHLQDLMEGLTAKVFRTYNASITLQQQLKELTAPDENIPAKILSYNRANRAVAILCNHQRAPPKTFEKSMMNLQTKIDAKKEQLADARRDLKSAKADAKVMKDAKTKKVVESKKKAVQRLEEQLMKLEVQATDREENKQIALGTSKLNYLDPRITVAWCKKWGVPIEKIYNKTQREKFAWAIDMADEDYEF
Kind of experiment: Inhibition of human topoisomerase1 activity at 20 uM using pBR322 plasmid DNA as substrate incubated for 30 mins by EtBr-based gel electrophoresis.

In experiment [13] the target is Serine/threonine-protein kinase pim-2 (Homo sapiens, UniProt Q9P1W9). Kind of experiment: Inhibition of human full length GST-tagged Pim-2 expressed in Escherichia coli using RSRHSSYPAGT as substrate measured for 30 mins by [gamma-33P]ATP-based kinase assay.
Experiment [14] addresses T1, Serine/threonine-protein kinase pim-1. As to the kind of experiment: Inhibition of human full length (His)6-tagged Pim-1 expressed in insect Sf21 cells using RSRHSSYPAGT as substrate measured for 30 mins by [gamma-33P]ATP-based kinase assay.
Target sequence in this assay (P11309 whole entry): as the sequence (P11309 whole entry, looked up) above
The subject of experiment [15] is Calf thymus DNA. As to the kind of experiment: Displacement of EtBr from calf thymus double stranded DNA by fluorescence spectrophotometric analysis. Format: nucleic-acid assay, Bos taurus.

This passage reports Activity, IC50 and inhibition results from ChEMBL document CHEMBL3813662, “Synthesis and biological activity of pyrazole analogues of the staurosporine aglycon K252c” (Bioorg Med Chem, 2016).

The source made the active and inactive calls. The calls are words filed in the database; no cut-off is given here.

Sequence of Serine/threonine-protein kinase pim-2 (Q9P1W9 whole entry): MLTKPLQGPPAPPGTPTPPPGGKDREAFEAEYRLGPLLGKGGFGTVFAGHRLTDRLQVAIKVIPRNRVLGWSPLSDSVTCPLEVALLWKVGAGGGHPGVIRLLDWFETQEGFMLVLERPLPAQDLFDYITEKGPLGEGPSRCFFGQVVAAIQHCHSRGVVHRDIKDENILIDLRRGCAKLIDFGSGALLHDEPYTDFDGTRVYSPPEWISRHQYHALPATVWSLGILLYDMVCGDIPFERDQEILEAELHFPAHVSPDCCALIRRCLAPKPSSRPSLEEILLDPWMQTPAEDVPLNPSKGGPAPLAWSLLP

The term IC50 denotes the concentration that inhibits the measured activity by half. As to `O=c1[nH][nH]c2c1c1c3ccccc3[nH]c1c1[nH]c3ccccc3c12`, the Activity in experiment [1] is 110%; in experiment [3], 47%; in experiment [5], 107%; in experiment [6], 99%; in experiment [7], 8%; in [8], 97%. Further, the IC50 was found to be 3.5 µM in experiment [2] and 8.8 µM in the experiment on K562 [4].
Regarding `O=C1NCc2c1c1c3ccccc3[nH]c1c1[nH]c3ccccc3c21` [STAUROSPORINONE], the IC50 in the experiment on K562 [9] came to 7.8 µM.
In the case of `c1ccc2c(-c3cn[nH]c3-c3c[nH]c4ccccc34)c[nH]c2c1`, the Activity in experiment [1] amounted to 100%; in experiment [3], 98%; in experiment [5], 112%; in [6], 91%; in [7], 73%; in experiment [8], 105%. The figures for the 50% inhibitory concentration (IC50) (in experiment [2]; in the experiment on K562 [4]) were 30 µM and 18 µM, respectively.
`O=c1[nH][nH]c(-c2c[nH]c3ccccc23)c1-c1c[nH]c2ccccc12`: the Activity is 93% in experiment [1]; 94% in experiment [3]; 117% in experiment [5]; 92% in [6]; 67% in experiment [7]; 100% in experiment [8]. Besides, the half-inhibitory concentration (IC50) (in [2]; with K562 [4]) was greater than 50 µM each time.
On to `c1ccc2c(c1)[nH]c1c3[nH]c4ccccc4c3c3[nH]ncc3c21`, for which the concentration for half-maximal inhibition (IC50) in [10] amounted to 0.022 µM; with Calf thymus DNA [11] it was 90 µM; in experiment [2], 4.2 µM; in the experiment with K562 [4], 4.5 µM; in [13], 0.59 µM; in experiment [14] it was 0.15 µM. The same molecule gave a concentration for half-maximal inhibition (IC50) with Calf thymus DNA [15] of 16 µM. The Activity in experiment [1] was 108%; in experiment [3], 13%; in experiment [5], 103%; in experiment [6] it was 91%; in experiment [7], 2%; in experiment [8] it was 101%. The inhibition entry in [12] was “inactive”.
